Data: patent US20230026616A1, “PYRIMIDOIMIDAZOLE COMPOUNDS USED AS DNA-PK INHIBITORS” (MEDSHINE DISCOVERY INC., priority 2019, published 2023)

Test: Pharmacokinetic evaluation in cynomolgus monkeys
Type: in vivo, Male cynomolgus monkeys
From the text: IV: intravenous injection; PO: oral; C0: instantaneous […] concentration after intravenous injection; Cmax: highest plasma concentration after administration; Tmax: time required to reach peak of drug concentration after administration; T1/2: time required for the plasma drug concentration to decrease by half, Vdss: apparent volume of distribution, refers to the proportional constant of the drug dose in vivo and the blood drug concentration when the drug reaches a dynamic equilibrium in vivo. Cl: clearance rate, refers to the […] cleared from the body per unit time; Tlast: time at the last detection point; AUC0-last: area under the drug-time curve, refers to the area covered by the plasma concentration curve and the time axis; F: a measure of the speed and degree of drug absorption into the blood circulation, which is an important indicator for evaluating the degree of drug absorption.
Test compound was mixed with 10% dimethyl sulfoxide/50% polyethylene glycol 200/40% water, vortexed and sonicated to prepare a nearly clear solution of 1 mg/mL, then filtered through a microporous membrane for next step. Male cynomolgus monkeys were selected and administered intravenously with the candidate compound solution at a dose of 1 mg/kg. Test compound was mixed with 10% dimethyl sulfoxide/50% polyethylene glycol 200/40% water, vortexed and sonicated to prepare a nearly clear solution of 1 mg/mL, then filtered with a microporous membrane for next step. Male cynomolgus monkeys were selected and orally administered with the candidate compound solution at a dose of 5 mg/kg. Whole blood was collected for a certain period of time, and plasma was prepared, then drug concentration was detected by LC-MS/MS method, and pharmacokinetic parameters were calculated by Phoenix WinNonlin software (Pharsight, USA).

[1] = male, 1 mg/kg, cynomolgus monkey plasma, IV 1 mpk
[2] = male, 5 mg/kg, cynomolgus monkey plasma, PO 5 mpk

Tlast (cynomolgus monkey plasma, PO 5 mpk): 12 h | F (cynomolgus monkey, PO 5 mpk vs IV 1 mpk): 115% | AUC(0-t) [1]: 2.44 µM·h | C0 [1]: 2.29 µM | clearance [1]: 16.8 mL/min/kg | half-life [1]: 3.6 h | Vd (male, 1 mg/kg, cynomolgus monkey plasma, IV 1 mpk, read-out: Vdss): 1.52 L/kg | AUC(0-t) [2]: 14 µM·h | Cmax [2]: 4.5 µM | Tmax [2]: 1.17 h | half-life [2]: 1.35 h
Compound: Cc1cc2ncnn2cc1Nc1ncc2c(n1)n(N1CC3CCC(C1)O3)c(=O)n2C [Compound 5]
